Reference: patent US10000484B2, “Inhibitors of the renal outer medullary potassim channel” (MERCK SHARP & DOHME CORP., priority 2013, dated 2018)

Each molecule was assayed against T1, ROMK (Kir1.1) (Homo sapiens, UniProt P48048) (assay: 86Rb+ Efflux Assay, described in WO2013/062892 at pages 79-80). Settings: values marked "(Rb)" in Table 10.
T1 sequence (P48048 1-391): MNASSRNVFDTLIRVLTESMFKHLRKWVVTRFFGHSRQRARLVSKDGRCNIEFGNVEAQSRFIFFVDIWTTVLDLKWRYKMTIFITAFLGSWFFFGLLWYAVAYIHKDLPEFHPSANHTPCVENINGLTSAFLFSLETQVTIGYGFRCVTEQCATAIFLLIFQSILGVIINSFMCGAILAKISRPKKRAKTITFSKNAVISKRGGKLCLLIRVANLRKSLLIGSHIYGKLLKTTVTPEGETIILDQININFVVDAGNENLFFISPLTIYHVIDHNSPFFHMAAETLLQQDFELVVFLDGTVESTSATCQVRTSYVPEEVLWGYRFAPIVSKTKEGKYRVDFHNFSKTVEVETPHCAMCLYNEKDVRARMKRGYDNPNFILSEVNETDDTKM
Type: cell-based
Excerpt: The data for Examples 2, 3, 4, 8, 9, 10, 15 and 32 were obtained using the ^86Rb^+ Efflux Assay, described in WO2013/062892 at pages 79-80.

IC50 [nM] | SMILES
306 | N#Cc1ccc(-c2ncc3c(n2)CCN(CCc2ccc4c(c2)COC4=O)C3)cc1 [Example 2, 4-{6-[2-(1-oxo-1,3-dihydro-2-benzofuran-5-yl)ethyl]-5,6,7,8-tetrahydropyrido[4,3-d]pyrimidin-2-yl}benzonitrile]
197 | COc1cc(-c2cn3c(n2)CN(CCc2ccc4c(c2C)COC4=O)CC3)ccc1C#N [Example 15, 2-methoxy-4-{7-[2-(4-methyl-1-oxo-1,3-dihydro-2-benzofuran-5-yl)ethyl]-5,6,7,8-tetrahydroimidazo[1,2-a]pyrazin-2-yl}benzonitrile]
380 | Cc1c(CCN2CCc3c(cnn3-c3ccc(-n4cnnn4)cc3)C2)ccc2c1COC2=O [Example 8, 4-methyl-5-(2-{1-[4-(1H-tetrazol-1-yl)phenyl]-1,4,6,7-tetrahydro-5H-pyrazolo[4,3-c]pyridin-5-yl}ethyl)-2-benzofuran-1(3H)-one]
501 | N#Cc1ccc(-n2ncc3c2CCN(CCc2ccc4c(c2)COC4=O)C3)cc1 [Example 3, 4-{5-[2-(1-oxo-1,3-dihydro-2-benzofuran-5-yl)ethyl]-4,5,6,7-tetrahydro-1H-pyrazolo[4,3-c]pyridin-1-yl}benzonitrile]
